Assay results reported in PubChem BioAssay AID220 (DTP/NCI, 2004).
Values joined by “and” are separate entries in the source; they are usually repeats but may differ in a detail not shown here. Equal entries are not always repeated. Results filed as inconclusive are left out.

Tested on: CD8F1 mice, subcutaneous mammary adenocarcinoma, T/C%
Experiment: NCI In Vivo Anticancer Drug Screen. Data for tumor model Mammary Adenocarcinoma CD8F1 (subcutaneous) in CD8F1
Settings: higher = larger tumour
How it was run: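 Transplantable tumors were established in mice, animals were dosed with compound or vehicle, and survival or tumor size was then measured in both groups. The treated result was divided by the control result.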

[1] = endpoint: median tumor weight change, dose: 62.5 mg/kg/injection, schedule: Q01DX001 (ip), vehicle: saline with Tween-80
[2] = endpoint: median tumor weight change, dose: 125.0 mg/kg/injection, schedule: Q01DX001 (ip), vehicle: saline with Tween-80
[3] = endpoint: median tumor weight change, dose: 250.0 mg/kg/injection, schedule: Q01DX001 (ip), vehicle: saline with Tween-80

In the case of `O=NN(CCCl)C(=O)NCCCl`, the T/C (endpoint: mean tumor weight (est.), dose: 7.5 mg/kg/injection, schedule: Q07DX003 (ip), vehicle: saline + alcohol) is reported as 58 % of control, the T/C (endpoint: mean tumor weight (est.), dose: 12.5 mg/kg/injection, schedule: Q07DX003 (ip), vehicle: saline + alcohol) is reported as 46 % of control and the T/C (endpoint: mean tumor weight (est.), dose: 15.0 mg/kg/injection, schedule: Q07DX003 (ip), vehicle: saline + alcohol) is reported as 34 % of control. For the same molecule, the T/C (endpoint: mean tumor weight, dose: 1.5 mg/kg/injection, schedule: Q01DX009 (ip), vehicle: saline) was 52 % of control, the T/C (endpoint: mean tumor weight, dose: 3.0 mg/kg/injection, schedule: Q01DX009 (ip), vehicle: saline) was 54 % of control and the T/C (endpoint: mean tumor weight, dose: 3.75 mg/kg/injection, schedule: Q07DX007 (ip), vehicle: saline + alcohol) was 113 % of control. The T/C (endpoint: mean tumor weight, dose: 6.25 mg/kg/injection, schedule: Q01DX009 (ip), vehicle: saline) was 26 % of control and 29 % of control, the T/C (endpoint: mean tumor weight, dose: 7.5 mg/kg/injection, schedule: Q07DX006 (ip), vehicle: saline + alcohol) was 62 % of control and the T/C (endpoint: mean tumor weight, dose: 7.5 mg/kg/injection, schedule: Q07DX007 (ip), vehicle: saline + alcohol) was 77 % of control. For the same molecule, the T/C (endpoint: mean tumor weight, dose: 12.5 mg/kg/injection, schedule: Q07DX006 (ip), vehicle: saline + alcohol) was 33 % of control, the T/C (endpoint: mean tumor weight, dose: 12.5 mg/kg/injection, schedule: Q07DX006 (ip), vehicle: saline) was 5 % of control and the T/C (endpoint: mean tumor weight, dose: 15.0 mg/kg/injection, schedule: Q07DX006 (ip), vehicle: saline + alcohol) was 4 % of control. The T/C (endpoint: mean tumor weight, dose: 15.0 mg/kg/injection, schedule: Q07DX007 (ip), vehicle: saline + alcohol) was 60 % of control, the T/C (endpoint: median tumor weight (est.), dose: 1.5 mg/kg/injection, schedule: Q01DX005 (ip), vehicle: saline with Tween-80) was 49 % of control and the T/C (endpoint: median tumor weight (est.), dose: 2.0 mg/kg/injection, schedule: Q04DX005 (ip), vehicle: saline with Tween-80) was 99 % of control. For the same molecule, the T/C (endpoint: median tumor weight (est.), dose: 2.0 mg/kg/injection, schedule: Q07DX005 (ip), vehicle: saline with Tween-80) was 40 % of control and 56 % of control and 65 % of control, the T/C (endpoint: median tumor weight (est.), dose: 3.0 mg/kg/injection, schedule: Q01DX005 (ip), vehicle: saline with Tween-80) was 69 % of control and the T/C (endpoint: median tumor weight (est.), dose: 4.0 mg/kg/injection, schedule: Q04DX005 (ip), vehicle: saline with Tween-80) was 44 % of control. For the same molecule, the T/C (endpoint: median tumor weight (est.), dose: 6.0 mg/kg/injection, schedule: Q01DX005 (ip), vehicle: saline with Tween-80) was 29 % of control, the T/C (endpoint: median tumor weight (est.), dose: 8.0 mg/kg/injection, schedule: Q04DX005 (ip), vehicle: saline with Tween-80) was 10 % of control and the T/C (endpoint: median tumor weight (est.), dose: 8.0 mg/kg/injection, schedule: Q07DX005 (ip), vehicle: saline with Tween-80) was 27 % of control and 35 % of control and 38 % of control. The T/C (endpoint: median tumor weight (est.), dose: 12.0 mg/kg/injection, schedule: Q01DX005 (ip), vehicle: saline with Tween-80) was 2 % of control, the T/C (endpoint: median tumor weight (est.), dose: 16.0 mg/kg/injection, schedule: Q04DX005 (ip), vehicle: saline with Tween-80) was 5 % of control and the T/C (endpoint: median tumor weight (est.), dose: 16.0 mg/kg/injection, schedule: Q07DX005 (ip), vehicle: saline with Tween-80) was 1 % of control and 2 % of control and 18 % of control. The T/C (endpoint: median tumor weight change, dose: 7.81 mg/kg/injection, schedule: Q01DX001 (ip), vehicle: saline + alcohol) was 70 % of control, the T/C (endpoint: median tumor weight change, dose: 8.0 mg/kg/injection, schedule: Q01DX001 (ip), vehicle: saline + alcohol) was 32 % of control and the T/C (endpoint: median tumor weight change, dose: 15.62 mg/kg/injection, schedule: Q01DX001 (ip), vehicle: saline + alcohol) was 40 % of control. For the same molecule, the T/C (endpoint: median tumor weight change, dose: 15.62 mg/kg/injection, schedule: Q01DX001 (ip), vehicle: saline with Tween-80) was 55 % of control, the T/C (endpoint: median tumor weight change, dose: 16.0 mg/kg/injection, schedule: Q01DX001 (ip), vehicle: saline + alcohol) was 31 % of control and the T/C (endpoint: median tumor weight change, dose: 31.0 mg/kg/injection, schedule: Q01DX001 (ip), vehicle: saline + alcohol) was 23 % of control. For the same molecule, the T/C (endpoint: median tumor weight change, dose: 31.25 mg/kg/injection, schedule: Q01DX001 (ip), vehicle: saline + alcohol) was 31 % of control, the T/C (endpoint: median tumor weight change, dose: 31.25 mg/kg/injection, schedule: Q01DX001 (ip), vehicle: saline with Tween-80) was 20 % of control and the T/C (endpoint: median tumor weight change, dose: 62.0 mg/kg/injection, schedule: Q01DX001 (ip), vehicle: saline + alcohol) was -31 % of control. For the same molecule, the T/C (endpoint: median tumor weight change, dose: 62.5 mg/kg/injection, schedule: Q01DX001 (ip), vehicle: saline + alcohol) was 17 % of control and the T/C (endpoint: median tumor weight change, dose: 125.0 mg/kg/injection, schedule: Q01DX001 (ip), vehicle: saline + alcohol) was -39 % of control.
With `COc1cc2c(c(OC)c1OC)-c1ccc(OC)c(=O)cc1[C@@H](NC(C)=O)CC2` the T/C (endpoint: median tumor weight (est.), dose: 0.75 mg/kg/injection, schedule: Q07DX005 (ip), vehicle: saline) was 82 % of control and 97 % of control, the T/C (endpoint: median tumor weight (est.), dose: 1.5 mg/kg/injection, schedule: Q07DX005 (ip), vehicle: saline) was 49 % of control and the T/C (endpoint: median tumor weight change, dose: 3.0 mg/kg/injection, schedule: Q01DX001 (ip), vehicle: suspension in saline) was 21 % of control. The T/C (endpoint: median tumor weight change, dose: 6.25 mg/kg/injection, schedule: Q01DX001 (ip), vehicle: saline) was -47 % of control.
`O=C(CCl)NC(Cc1ccc(N(CCCl)CCCl)cc1)C(=O)O` (centres undefined) was tested, and the T/C (endpoint: median tumor weight (est.), dose: 2.0 mg/kg/injection, schedule: Q01DX001 (ip), vehicle: Klucel (hydroxypropylcellulose) (HPC)) was 93 % of control, the T/C (endpoint: median tumor weight (est.), dose: 4.0 mg/kg/injection, schedule: Q01DX001 (ip), vehicle: Klucel (hydroxypropylcellulose) (HPC)) was 54 % of control and the T/C (endpoint: median tumor weight (est.), dose: 8.0 mg/kg/injection, schedule: Q01DX001 (ip), vehicle: Klucel (hydroxypropylcellulose) (HPC)) was 75 % of control and 82 % of control. For the same molecule, the T/C (endpoint: median tumor weight (est.), dose: 16.0 mg/kg/injection, schedule: Q01DX001 (ip), vehicle: Klucel (hydroxypropylcellulose) (HPC)) was 48 % of control and 60 % of control, the T/C (endpoint: median tumor weight (est.), dose: 32.0 mg/kg/injection, schedule: Q01DX001 (ip), vehicle: Klucel (hydroxypropylcellulose) (HPC)) was 60 % of control and 62 % of control and the T/C (endpoint: median tumor weight (est.), dose: 64.0 mg/kg/injection, schedule: Q01DX001 (ip), vehicle: Klucel (hydroxypropylcellulose) (HPC)) was 19 % of control and 43 % of control.
For `O=C(O)C1CC1.[Ag]`, the T/C (endpoint: median tumor weight (est.), dose: 6.25 mg/kg/injection, schedule: Q07DX005 (ip), vehicle: distilled water + Tween-80) was 63 % of control and the T/C (endpoint: median tumor weight (est.), dose: 12.5 mg/kg/injection, schedule: Q07DX005 (ip), vehicle: distilled water + Tween-80) was 88 % of control.
With `Cc1ncc(CNC(=O)N(CCCl)N=O)c(N)n1` the T/C (endpoint: median tumor weight (est.), dose: 6.25 mg/kg/injection, schedule: Q07DX005 (ip), vehicle: saline) was 18 % of control, the T/C (endpoint: median tumor weight (est.), dose: 12.5 mg/kg/injection, schedule: Q07DX005 (ip), vehicle: saline) was 20 % of control and the T/C (endpoint: median tumor weight (est.), dose: 25.0 mg/kg/injection, schedule: Q07DX005 (ip), vehicle: saline) was 14 % of control.
For `Cc1c2ccccc2c(C)c2c1cc(C(=O)O)c1ccccc12`, the T/C (endpoint: median tumor weight change, dose: 50.0 mg/kg/injection, schedule: Q01DX001 (ip), vehicle: sodium bicarbonate) was 83 % of control, the T/C (endpoint: median tumor weight change, dose: 100.0 mg/kg/injection, schedule: Q01DX001 (ip), vehicle: sodium bicarbonate) was 82 % of control and the T/C (endpoint: median tumor weight change, dose: 200.0 mg/kg/injection, schedule: Q01DX001 (ip), vehicle: sodium bicarbonate) was 155 % of control. For the same molecule, the T/C (endpoint: median tumor weight change, dose: 400.0 mg/kg/injection, schedule: Q01DX001 (ip), vehicle: sodium bicarbonate) was 153 % of control.
In the case of `CN(C)c1ccc2c(N(C)C)cc(N(C)C)nc2c1`, the T/C (endpoint: median tumor weight (est.), dose: 3.12 mg/kg/injection, schedule: Q07DX005 (ip), vehicle: Klucel (hydroxypropylcellulose) (HPC)) is reported as 58 % of control and the T/C (endpoint: median tumor weight (est.), dose: 6.25 mg/kg/injection, schedule: Q07DX005 (ip), vehicle: Klucel (hydroxypropylcellulose) (HPC)) is reported as 78 % of control.
In the case of `CCCCOCN(COCCCC)C12CC3CC(CC(C3)C1)C2`, the T/C [1] is reported as 122 % of control, the T/C [2] is reported as 79 % of control and the T/C [3] is reported as 61 % of control.
With `COc1cc2c(ccc3c4cc(OC)c(OC)cc4c[n+](C)c23)cc1O` the T/C (endpoint: median tumor weight change, dose: 250.0 mg/kg/injection, schedule: Q01DX001 (ip), vehicle: saline) was 190 % of control, the T/C (endpoint: median tumor weight change, dose: 1000.0 mg/kg/injection, schedule: Q01DX001 (ip), vehicle: saline) was 89 % of control and the T/C (endpoint: median tumor weight change, dose: 2000.0 mg/kg/injection, schedule: Q01DX001 (ip), vehicle: saline) was 121 % of control.
With `COC1C(O)C(C)OC(OC2C(Oc3cccc4c(O)c5c(=O)oc6ccc(C)c7c(=O)oc(c34)c5c67)OC(C)C(O)C2O)C1O` (centres undefined) the T/C (endpoint: median tumor weight (est.), dose: 12.5 mg/kg/injection, schedule: Q07DX005 (ip), vehicle: Klucel (hydroxypropylcellulose) (HPC)) was 73 % of control, the T/C (endpoint: median tumor weight (est.), dose: 25.0 mg/kg/injection, schedule: Q07DX005 (ip), vehicle: Klucel (hydroxypropylcellulose) (HPC)) was 75 % of control and the T/C (endpoint: median tumor weight (est.), dose: 50.0 mg/kg/injection, schedule: Q07DX005 (ip), vehicle: Klucel (hydroxypropylcellulose) (HPC)) was 50 % of control.
For `[N-]=[N+]=[N-]`, the T/C (endpoint: median tumor weight change, dose: 3.0 mg/kg/injection, schedule: Q01DX001 (ip), vehicle: saline) was 72 % of control, the T/C (endpoint: median tumor weight change, dose: 6.0 mg/kg/injection, schedule: Q01DX001 (ip), vehicle: saline) was 104 % of control and the T/C (endpoint: median tumor weight change, dose: 12.0 mg/kg/injection, schedule: Q01DX001 (ip), vehicle: saline) was 122 % of control. The T/C (endpoint: median tumor weight change, dose: 24.0 mg/kg/injection, schedule: Q01DX001 (ip), vehicle: saline) was 66 % of control.
For `O=C(N[C@H](CO)[C@H](O)c1ccc([N+](=O)[O-])cc1)C(Cl)Cl`, the T/C [1] was 102 % of control, the T/C [2] was 91 % of control and the T/C [3] was 92 % of control. For the same molecule, the T/C (endpoint: median tumor weight change, dose: 500.0 mg/kg/injection, schedule: Q01DX001 (ip), vehicle: saline with Tween-80) was 73 % of control and the T/C (endpoint: median tumor weight change, dose: 1000.0 mg/kg/injection, schedule: Q01DX001 (ip), vehicle: saline with Tween-80) was 98 % of control.
